Structures can show the parent of a compound that is named as a salt.
Legend:
[1] = target: T1, human histone deacetylase; experiment: Test 1: Determination of Histone Deacetylase Inhibitor Activity; type: biochemical; conditions: enzyme partially purified from human T cell leukemia Jurkat cells; [3H] acetyl-labeled histones; 25° C., 30 minutes; read-out: Test 1: HDAC inhibitory activity IC50
T1 construct: The human histone deacetylase was partially purified from human T cell leukemia Jurkat cells
Protocol: Test 1: Determination of Histone Deacetylase Inhibitor Activity
The partial purification of human histone deacetylase, the preparation of [^3H] acetyl histones, and the assay for histone deacetylase activity were performed basically according to the method as proposed by Yoshida et al. as follows.
Partial Purification of Human Histone Deacetylase
The human histone deacetylase was partially purified from human T cell leukemia Jurkat cells. Jurkat cells (5×10^8 cells) were suspended in 40 mL of the HDA buffer consisting of 15 mM potassium phosphate, pH 7.5, 5% glycerol and 0.2 mM EDTA. After homogenization, nuclei were collected by centrifugation (35,000×g, 10 min) and homogenized in 20 mL of the same buffer supplemented with 1 M (NH4)2SO4. The viscous homogenate was sonicated and clarified by centrifugation (35,000×g, 10 min), and the deacetylase was precipitated by raising the concentration of (NH4)2SO4 to 3.5 M. The precipitated protein was dissolved in 10 mL of the HDA buffer and dialyzed against 4 liters of the same buffer. The dialyzate was then loaded onto a DEAE-cellulose (Whatman DE52) column (25×85 mm) equilibrated with the same buffer and eluted with 300 mL of a linear gradient (0-0.6 M) of NaCl. A single peak of histone deacetylase activity appeared between 0.3 and 0.4 M NaCl.
Preparation of [^3H] Acetyl Histone
To obtain [^3H] acetyl-labeled histone as the substrate for the histone deacetylase assay, 1×10^8 cells of Jurkat in 20 mL of RPMI-1640 medium (supplemented with 10% FBS, penicillin (50 units/mL) and streptomycin (50 μg/mL)) were incubated with 300 MBq [^3H] sodium acetate in the presence of 5 mM sodium butyrate for 30 minutes in 5% CO2-95% air atmosphere at 37° C. in a 75 cm^2 flask, harvested into a centrifuge tube (50 mL), collected by centrifugation at 1000 rpm for 10 minutes, and washed once with phosphate-buffered saline. The washed cells were suspended in 15 mL of ice-cold lysis buffer (10 mM Tris-HCl, 50 mM sodium bisulfite, 1% Triton X-100, 10 mM MgCl2, 8.6% sucrose, pH 6.5). After Dounce homogenization (30 stroke), the nuclei were collected by centrifugation at 1000 rpm for 10 minutes, washed 3 times with 15 mL of the lysis buffer, and once with 15 mL of ice-cooled washing buffer (10 mM Tris-HCl, 13 mM EDTA, pH 7.4) successively. The pellet was suspended in 6 mL of ice-cooled water using a mixer, and 68 μl of H2SO4 was added to the suspension to give a concentration of 0.4 N. After incubation at 4° C. for 1 hour, the suspension was centrifuged for 5 minutes at 15, 000 rpm, and the supernatant was taken and mixed with 60 mL of acetone. After overnight incubation at −20° C., the coagulated material was collected by microcentrifugation, air-dried, and stored at −80° C.
Assay for Histone Deacetylase Activity
For the standard assay, 10 μl of [^3H] acetyl-labeled histones were added to 90 μl of the enzyme fraction, and the mixture was incubated at 25° C. for 30 minutes. The reaction was stopped by addition of 10 μL of HCl. The released [^3H] acetic acid was extracted with 1 mL of ethyl acetate, and 0.9 mL of the solvent layer was taken into 10 mL of toluene scintillation solution for determination of radioactivity.

[2] = tested on: splenic cells of Lewis rats; experiment: Test 2: Determination of T-Cell Growth Inhibitor Activity (T lymphocyte blastogenesis test); type: cell-based; conditions: Rattus norvegicus, Concanavalin A added, 72 hours, AlamarBlue Assay, read-out: Test 2: T-cell growth inhibitory activity IC50
Protocol: Test 2: Determination of T-Cell Growth Inhibitor Activity The T lymphocyte blastogenesis test was performed in microtiter plates with each well containing 1.5×10^5 splenic cells of Lewis rats in 0.1 mL RPMI-1640 medium supplemented with 10% fetal bovine serum (FBS), […] 2-mercaptoethanol, penicillin (100 units/mL) and streptomycin (100 μg/mL), to which Concanavalin A (1 μl/mL) was added. The cells were incubated at 37° C. in a humidified atmosphere of 5% CO2 for 72 hours. After the culture period, suppressive activities of the test compounds in T lymphocyte blastogenesis were quantified by AlamarBlue (trademark) Assay. The test samples were dissolved in DMSO and further diluted with RPMI-1640 medium and added to the culture. The activities of the test compounds were expressed as IC50.

| SMILES | IC50 [1] | IC50 [2] |
| --- | --- | --- |
| O=C(/C=C/c1ccc(N[C@@H]2CCN(Cc3ccccc3)C2)nc1)NO [Example 3, (2E)-3-(6-{[(3R)-1-Benzyl-3-pyrrolidinyl]amino}-3-pyridyl)-N-hydroxyacrylamide dihydrochloride] | < 0.01 µM | < 0.025 µM |
| O=C(/C=C/c1ccc(N[C@@H]2CCN(CC3CCCCC3)C2)nc1)NO [Example 60, (2E)-3-(6-{[(3R) 1-(Cyclohexylmethyl)-3-pyrrolidinyl]amino}-3-pyridyl)-N-hydroxyacrylamide dihydrochloride] | < 0.01 µM | < 0.025 µM |
| O=C(/C=C/c1cnc(N[C@@H]2CCN(Cc3ccc(Cl)cc3)C2)cn1)NO [Example 74, (2E)-3-(5-{[(3R)-1-(4-chlorobenzyl)-3-pyrrolidinyl]amino}-2-pyrazinyl)-N-hydroxyacrylamide dihydrochloride] | < 0.01 µM | < 0.025 µM |
| O=C(/C=C/c1cnc(N[C@@H]2CCCN(Cc3ccccc3)C2)cn1)NO [Example 76, (2E)-3-(5-{[(3R)-1-Benzyl-3-piperidinyl]amino}-2-pyrazinyl)-N-hydroxyacrylamide dihydrochloride] | < 0.01 µM | < 0.025 µM |
| O=C(/C=C/c1cnc(N[C@@H]2CCN(Cc3ccccc3)C2)cn1)NO [Example 82, (2E)-3-(5-{[(3R)-1-Benzyl-3-pyrrolidinyl]amino}-2-pyrazinyl)-N-hydroxyacrylamide dihydrochloride] | < 0.01 µM | < 0.025 µM |
| O=C(/C=C/c1cnc(N[C@@H]2CCN(Cc3ccc(F)cc3)C2)cn1)NO [Example 116, (2E)-3-(5-{[(3R)-1-(4-fluorobenzyl)-3-pyrrolidinyl]amino}-2-pyrazinyl)-N-hydroxyacrylamide dihydrochloride] | < 0.01 µM | < 0.025 µM |
| O=C(/C=C/c1cnc(N[C@@H]2CCN(CCc3ccccc3)C2)cn1)NO [Example 119, (2E)-N-hydroxy-3-(5-{[(3R)-1-(2-phenylethyl)-3-pyrrolidinyl]amino}-2-pyrazinyl)acrylamide dihydrochloride] | < 0.01 µM | < 0.025 µM |
| O=C(/C=C/c1cnc(N[C@@H]2CCN(C3CCCCC3)C2)cn1)NO [Example 123, (2E)-3-(5-{[(3R)-1-cyclohexyl-3-pyrrolidinyl]amino}-2-pyrazinyl)-N-hydroxyacrylamide dihydrochloride] | < 0.01 µM | < 0.025 µM |
| O=C(/C=C/c1cnc(N[C@@H]2CCN(C(=O)C3CCCCC3)C2)c(Cl)c1)NO [Example 174, (2E)-3-(5-chloro-6-{[(3R)-1-(cyclohexylcarbonyl)-3-pyrrolidinyl]amino}-3-pyridinyl)-N-hydroxyacrylamide hydrochloride] | < 0.01 µM | < 0.025 µM |
| CC1=C(CN2CC[C@@H](Nc3ccc(/C=C/C(=O)NO)cn3)C2)C(C)(C)CCC1 [Example 189, (2E)-N-hydroxy-3-[6-({(3R)-1-[(2,6,6-trimethyl-1-cyclohexen-1-yl)methyl]-3-pyrrolidinyl}amino)-3-pyridinyl]acrylamide dihydrochloride] | < 0.01 µM | < 0.025 µM |
